Columns and labels:
Assay type in all cases: cell-based, human
A549 cells = assay: Cell cytotoxicity assay (crystal violet), A549; details: A549, 24 hours, 50 μM wogonin, 20 μM 5-FU, absorbance 600 nm
Experimental: (§1) Cell cytotoxicity assay was carried out on 96 well plate, where cells were treated with neutral, acidic, alkaline pH and anti-cancer drug wogonin or 5-FU. After 24 hours, crystal violet (8% in methanol), and dye absorbed by live cells was extracted with sodium citrate (0.1 M) in 50% ethanol. Absorbance was read at 600 nm.
(§2) HepG2, HeLa and A549 cells were grown to a monolayer density of 1×10^3 per well in neutral growth medium overnight. There upon the cells were changed to various treatment media at neutral, acidic and alkaline pHs, neutral medium containing 50 μM wogonin and neutral medium containing 20 μM 5-FU, for 24 hours at 37° C. in humidified 5% CO2 atmosphere. Following the treatment, floating cells were removed, and the attached cells were stained with crystal violet (8% in methanol); the dye absorbed by the live cells was extracted with sodium citrate (0.1 M) in 50% ethanol [1 25], and quantitated by absorbance at 600 nm.

[1] = test system: HepG2 hepatocellular carcinoma cells; assay: Time-lapse microscopy count of multi-daughter divisions (DNV frequency), HepG2; details: wogonin 50 μM, 5-FU 20 μM
Experimental: (§3) To investigate DNVs, the human HepG2 hepatocellular carcinoma, HeLa cervical adenocarcinoma, and A549 lung adenocarcinoma cell lines, as well as the non-cancerous RPE1 line of hTRET-immortalized retina epithelial cells, were obtained from the American Type Culture Collection (ATCC, Manassas, Va., USA) and cultivated in Dulbecco's Modified Eagle Medium (DMEM) supplemented with 10% fetal bovine serum (Gemini Bio-Products, Sacramento. Calif.) under a humidified atmosphere of 5% C02 at 37° C. After 24 hours, the old medium was replaced by acidic DMEM growth medium buffered by 15 mM 2-(N-morpholino)-ethanesulfonic acid.HCl (MES) at pH 6.4, neutral DMEM growth medium buffered by 15 mM 3-(N-morpholino)propanesulfonic acid.HCl (MOPS) at pH 7.4, alkaline growth medium buffered by 15 mM tris(hydroxymethyl)aminomethane.HCl (Tris) at pH 8.4, or neutral DMEM growth medium containing wogonin (50 μM) or 5-FU (20 μM). Using phase contrast microscopy, time-lapse photographs were recorded at different positions of the wells at 15-minute intervals for 24 hours using the Nikon ECLIPSE Ti Live Cell Imaging Observatory, enabling the count of P1 through P8 patterns at the end of Stage 2 of the DNV process (FIG. 1). All the images were photographed at 100× magnification. Altemately, using fluorescence microscopy, the cells were seeded into 12 well plates at 1×10^3 per well and stained with Hoechst 33342 ([…], Thermofisher) for 30 minutes in an incubator at 37° C. After 30 minutes, culture medium was replaced by various treatment media and placed under the Nikon ECLIPSE Ti Live Cell Imaging Observatory for 24 hours. For the HeLa, HepG2 and A549 cells, the various treatments were also extended to 5 days. Because the RPE1 cells yielded no DNVs after 24 hours of drug treatment, its treatment periods were not extended beyond 24 hours. All the cells were manually traced and quantified using the ImageJ software. DNV frequencies were estimated by dividing the total number of multi-daughter ([…]) divisions by the total number of cell divisions. Fluorescence staining and time-lapse microscopy were employed to differentiate between the bi-, tri-, tetra- and penta-daughter cell divisions, and to estimate the percentages of the P1 through P8 patterns in the final daughter cells generated by each of the DNV events. GraphPad Prism 5.0 software was employed for statistical analysis, and the results were presented as the mean. Significance was determined using the Student t-test (two-tailed, unpaired/unequal variances).

HeLa cells = assay: Cell cytotoxicity assay (crystal violet), HeLa; details: 24 hours, 50 μM wogonin, 20 μM 5-FU, absorbance 600 nm
Experimental: as §1, §2

HepG2 cells = assay: Cell cytotoxicity assay (crystal violet), HepG2; details: HepG2, 24 hours, 50 μM wogonin, 20 μM 5-FU, absorbance 600 nm
Experimental: as §1, §2

[2] = test system: A549 lung adenocarcinoma cells; assay: Time-lapse microscopy count of multi-daughter divisions (DNV frequency), A549; details: wogonin 50 μM, 5-FU 20 μM
Experimental: as §3

## O=c1[nH]cc(F)c(=O)[nH]1 [5-FU, 5-flurouracil]
A549 cells
  Cell death as compared to neutral pH: increased cell death
[1]; HepG2, 24 hours
  Bi-daughter divisions, % of total divisions: 99.1%
  Bi-daughter divisions, number: 1995
  Sum of Multi daughter Divisions, % of total mitotic divisions: 0.94%
  Sum of Multi daughter Divisions, number: 19
  Tetra-daughter divisions, % of total divisions: 0.25%
  Tetra-daughter divisions, number: 5
  Total number of observed divisions: 2014 (100)
  Tri-daughter divisions, % of total divisions: 0.69%
  Tri-daughter divisions, number: 14
  ≥Tetra-daughter divisions, number: 0
[1]; HepG2, 5 days
  Bi-daughter divisions, % of total divisions: 90.6%
  Bi-daughter divisions, number: 270
  Sum of Multi-daughter Divisions, % of total mitotic divisions: 9.30%
  Sum of Multi-daughter Divisions, number: 28
  Tetra-daughter divisions, % of total divisions: 2.6%
  Tetra-daughter divisions, number: 8
  Total Divisions: 298 (100)
  Tri-daughter divisions, % of total divisions: 5.7%
  Tri-daughter divisions, number: 17
  ≥Tetra-daughter divisions, % of total divisions: 1.0%
  ≥Tetra-daughter divisions, number: 3
HeLa cells
  Cell death as compared to neutral pH: increased cell death
HepG2 cells
  Cell death as compared to neutral pH: increased cell death
[2]; A549, 24 hours
  Bi-daughter divisions, % of total divisions: 99.9%
  Bi-daughter divisions, number: 2205
  Sum of Multi-daughter Divisions, % of total mitotic divisions: 0.13%
  Sum of Multi-daughter Divisions, number: 3
  Total number of observed divisions: 2208 (100)
  Tri-daughter divisions, % of total divisions: 0.13%
  Tri-daughter divisions, number: 3
[2]; A549, 5 days
  Bi-daughter divisions, % of total divisions: 97%
  Bi-daughter divisions, number: 259
  Sum of Multi-daughter Divisions, % of total mitotic divisions: 3.0%
  Sum of Multi-daughter Divisions, number: 8
  Tetra-daughter divisions, number: 0
  Total Divisions: 267 (100)
  Tri-daughter divisions, % of total divisions: 3%
  Tri-daughter divisions, number: 8
  ≥Tetra-daughter divisions, number: 0

## COc1c(O)cc(O)c2c(=O)cc(-c3ccccc3)oc12 [Wogonin, wogonin]
A549 cells
  Cell death as compared to neutral pH: increased cell death
[1]; HepG2, 24 hours
  Bi-daughter divisions, % of total divisions: 97.0%
  Bi-daughter divisions, number: 2482
  Sum of Multi daughter Divisions, % of total mitotic divisions: 2.97%
  Sum of Multi daughter Divisions, number: 76
  Tetra-daughter divisions, % of total divisions: 0.70%
  Tetra-daughter divisions, number: 18
  Total number of observed divisions: 2558 (100)
  Tri-daughter divisions, % of total divisions: 2.19%
  Tri-daughter divisions, number: 56
  ≥Tetra-daughter divisions, % of total divisions: 0.08%
  ≥Tetra-daughter divisions, number: 2
[1]; HepG2, 5 days
  Bi-daughter divisions, % of total divisions: 83.9%
  Bi-daughter divisions, number: 262
  Sum of Multi-daughter Divisions, % of total mitotic divisions: 16.0%
  Sum of Multi-daughter Divisions, number: 50
  Tetra-daughter divisions, % of total divisions: 3.8%
  Tetra-daughter divisions, number: 12
  Total Divisions: 312 (100)
  Tri-daughter divisions, % of total divisions: 16.0%
  Tri-daughter divisions, number: 50
  ≥Tetra-daughter divisions, % of total divisions: 2.5%
  ≥Tetra-daughter divisions, number: 8
[1]; HepG2, 5 days, listed as wogonin
  Sum of Multi-daughter Divisions, % of total mitotic divisions: 18.0%
HeLa cells
  Cell death as compared to neutral pH: increased cell death
HepG2 cells
  Cell death as compared to neutral pH: increased cell death
[2]; A549, 24 hours
  Bi-daughter divisions, % of total divisions: 99.6%
  Bi-daughter divisions, number: 1986
  Sum of Multi-daughter Divisions, % of total mitotic divisions: 0.3%
  Sum of Multi-daughter Divisions, number: 6
  Total number of observed divisions: 1992 (100)
  Tri-daughter divisions, % of total divisions: 0.30%
  Tri-daughter divisions, number: 6
[2]; A549, 24 hours, listed as wogonin
  Sum of Multi-daughter Divisions, % of total mitotic divisions: 0.30%
[2]; A549, 5 days
  Bi-daughter divisions, % of total divisions: 94.6%
  Bi-daughter divisions, number: 230
  Sum of Multi-daughter Divisions, % of total mitotic divisions: 5.3%
  Sum of Multi-daughter Divisions, number: 13
  Tetra-daughter divisions, % of total divisions: 2.4%
  Tetra-daughter divisions, number: 6
  Total Divisions: 243 (100)
  Tri-daughter divisions, % of total divisions: 2.8%
  Tri-daughter divisions, number: 7
  ≥Tetra-daughter divisions, number: 0

From US11952593B2, “Detection and treatment of daughter number variations in cancer cells” (PharmacoGenetics Limited, priority 2020, dated 2024)
